Source: patent publication US12486218B2, “Compounds advantageous in the treatment of central nervous system diseases and disorders” (AurimMed Pharma, Inc., priority 2008, dated 2025)

Columns and labels:
mice [1] = assay: 6 Hz (minimal clonic seizure) model, mice i.p.; type: in vivo; conditions: for 6 Hz (32 mA), fraction of animals: mice i.p.
SMN2 promoter = SMN2 promoter β-lactamase reporter assay in NSC34 motor neuron-like cells; type: cell-based; conditions: for SMN2 promoter activity: treatment for 19 hours at a concentration of 1 μM
Experimental: FIG. 30 illustrates a screen for SMN2 expression of a number of compounds described herein.
SMN2 promoter activity was measured using NSC34 motor neuron-like cells stably transfected with a β-lactamase (BLA) reporter gene under the control of a 3.4-kilobase fragment of the SMN2 promoter. D156844 was used as a positive control for this assay.

mice [2] = assay: Subcutaneous Metrazol Seizure threshold (s.c. MET) test, mice i.p.; type: in vivo; conditions: for activity in the s.c. MET test: mice, at 300 mg/kg; for s.c. MET, fraction of animals: mice i.p.
rats = assay: Pilocarpine-induced Status Epilepticus in Rats (prevention; intervention @ 30 min)
Experimental: The animal testing was performed using the protocols developed in the Anticonvulsant Screening Program (ASP) at the National Institute of Neurological Disorders and Stroke (NINDS), National Institutes of Health (NIH).

mice [3] = assay: Maximal Electroshock Seizure (MES) test, mice i.p.; type: in vivo; conditions: for MES, fraction of animals: mice i.p.; for activity in the MES test: mice
[4] = Rattus norvegicus, read-out: Prevention, Protection

## CC(C)C[C@H](NC(=O)[C@@H]1C[C@H]1c1ccccc1)C(N)=O (mixture of isomers) [Compound Q, trans-2-Phenylcyclopropane-carboxylic acid-((S)-1-carbamoyl-3-methylbutyl)amide]
Mice [1]; mice, at 300 mg/kg
  activity in the 6 Hz (minimal clonic seizure) model: activity

## Cc1nccnc1C(C)CC(N)=O (racemic) [CZ]
Mice [1]; 100 mg/kg @ 0.25 hr
  6 Hz (32 mA), fraction of animals: 1/4 @
Mice [1]; 100 mg/kg @ 0.5 hr
  6 Hz (32 mA), fraction of animals: 1/4 @
Mice [1]; 100 mg/kg @ 2.0 hr
  6 Hz (32 mA), fraction of animals: hrs and 2/4

## Cc1ccc(C(C)CC(N)=O)c(C)n1 (racemic) [DF]
Mice [1]; 100 mg/kg @ 2.0 hr
  6 Hz (32 mA), fraction of animals: 1/4 @ 2.0
Mice [1]; 100 mg/kg @ 4.0 hr
  6 Hz (32 mA), fraction of animals: 1/4 @ 2.0

## CCc1nccnc1C(C)CC(N)=O (racemic) [DB]
Mice [1]; 100 mg/kg @ 4.0 hr
  6 Hz (32 mA), fraction of animals: 1/4 @ 4.0 hrs.
SMN2 promoter
  SMN2 promoter activity: increased SMN2 promoter activity

## CNC(=O)CC(C)c1ccc(OC(F)(F)F)cc1 (centres unmarked) [BC, N-Methyl-3-(4-trifluoromethoxyphenyl)-butyramide]
Mice [2]
  activity in the s.c. MET test: activity

## CCC(CC(N)=O)c1ccc(OC)cc1 (centres unmarked) [AB, 3-(4-Methoxy-phenyl)-pentanoicacid amide]
rats; [4]
  responders at 450 mg/kg: 100%

## CC(CC(N)=O)Oc1ccc(C#N)cc1 (centres unmarked) [Compound O, 3-(4-Cyanophenoxy)butyramide]
rats; [4]
  responders at 450 mg/kg: 50%

## NC(=O)CC1(c2ccc(Cl)cc2)CCCCC1 [AK]
Mice [3]; 100 mg/kg @ 0.25 hr
  MES, fraction of animals: 3/4
Mice [3]; 100 mg/kg @ 2.0 hr
  MES, fraction of animals: 1/4
Mice [1]; 100 mg/kg @ 0.25 hr
  6 Hz (32 mA), fraction of animals: 4/4
Mice [1]; 100 mg/kg @ 0.5 hr
  6 Hz (32 mA), fraction of animals: 3/4
Mice [1]; 100 mg/kg @ 1.0 hr
  6 Hz (32 mA), fraction of animals: 1/4 @

## CC(C)Oc1ccc(C(C)CC(N)=O)cc1 (racemic) [CB]
Mice [3]; 100 mg/kg @ 0.25 hr
  MES, fraction of animals: 3/3
Mice [3]; 100 mg/kg @ 1.0 hr
  MES, fraction of animals: 1/3
rats; rats, pilocarpine-induced status epilepticus, dose 200 mg/kg
  Prevention, Protection: 100%

## CC(CC(N)=O)c1ccc2c(c1)OCCO2 (centres unmarked) [K, 3-(3,4-ethylenedioxy-phenyl)butyramide]
SMN2 promoter; NSC34 BLA reporter cells
  SMN2 promoter assay, particularly strong hits: particularly strong hits
SMN2 promoter; Table 13 summary
  Promoter (SMN2 promoter test, summary YES/NO): YES
SMN2 promoter
  SMN2 promoter activity: increased SMN2 promoter activity
rats; Rattus norvegicus, 0.5 h, read-out: Intervention @ 30 min, Protection
  responders at 600 mg/kg: 38%
rats; [4]
  responders at 300 mg/kg: 50%

## CC(CC(=O)N1CCC(C(N)=O)CC1)c1ccc(OC(F)(F)F)cc1 (centres unmarked) [BN, 1-[3-(4-Trifluoromethoxy-phenyl)-butyryl]-piperidine-4carboxylic acidamide]
Mice [3]; at 300 mg/kg
  activity in the MES test: activity
SMN2 promoter; NSC34 BLA reporter cells
  SMN2 promoter assay, evidence of activity (may warrant further study): show evidence of activity

## CCNC(=O)CC(C)c1ccc(OC(F)(F)F)cc1 (centres unmarked) [BF, N-Ethyl-3-(4-trifluoromethoxy-phenyl)-butyramide]
Mice [3]; at 300 mg/kg
  activity in the MES test: activity
Mice [2]
  activity in the s.c. MET test: activity
Mice [1]; 100 mg/kg @ 0.25 hr
  6 Hz (32 mA), fraction of animals: 3/4
Mice [1]; 100 mg/kg @ 0.5 hr
  6 Hz (32 mA), fraction of animals: 4/4
Mice [1]; 100 mg/kg @ 1.0 hr
  6 Hz (32 mA), fraction of animals: 2/4
Mice [1]; 100 mg/kg @ 2.0 hr
  6 Hz (32 mA), fraction of animals: 3/4
rats; [4]
  responders at 200 mg/kg: 88%

## CC[C@H](NC(=O)CC(C)c1ccc(OC(F)(F)F)cc1)C(N)=O (stereo partly drawn) [BR, N-((S)-1-Carbamoyl-propyl)-3-(4-trifluoromethoxy-phenyl)-butyramide]
Mice [3]; at 100 mg/kg
  activity in the MES test: activity
Mice [1]; 100 mg/kg @ 0.5 hr
  6 Hz (32 mA), fraction of animals: 1/4 @ 0.5

## CC(O)(CC(N)=O)c1ccc(OC(F)(F)F)cc1 (centres unmarked) [Compound CC, 3-hydroxy-3-(4(trifluoromethoxy)-phenyl)butanamide]
Mice [3]; 100 mg/kg @ 0.5 hr
  MES, fraction of animals: 3/3
Mice [3]; 100 mg/kg @ 4.0 hr
  MES, fraction of animals: 2/3
rats; [4]
  responders at 200 mg/kg: 100%

## CC(CC(N)=O)c1ccc(Cl)c(Cl)c1 (centres unmarked) [BW, 3-[3,4-dichloro-phenyl]butyramide]
Mice [3]; 100 mg/kg @ 0.5 hr
  MES, fraction of animals: 1/3 @
Mice [2]; 30 mg/kg @ 4.0 hr
  s.c. MET, fraction of animals: 1/1 @ 4.0
Mice [2]; 100 mg/kg @ 4.0 hr
  s.c. MET, fraction of animals: 1/1 @ 4.0

## CC(CC(=O)N1CCOCC1)c1ccc(OC(F)(F)F)cc1 (centres unmarked) [BI, 1-Morpholin-4-yl-3-(4-trifluoromethoxy-phenyl)-butan-1-one]
Mice [2]
  activity in the s.c. MET test: activity
Mice [1]; 50 mg/kg @ 0.25 hr
  6 Hz (32 mA), fraction of animals: 2/4
Mice [1]; 50 mg/kg @ 0.5 hr
  6 Hz (32 mA), fraction of animals: 1/4
